In patent publication US11643388B2, “Inhibitors of alpha 2 beta 1 integrin and methods of use thereof” (The Regents of the University of California, priority 2020, dated 2023):
Values after ≈ are worked out from the molar mass of the structure shown.

Key:
Plasma stability (h) = assay type: in vitro ADME, human; conditions: % remaining at 60 min
α4β1 = α4β1 (Homo sapiens, UniProt P05556+P13612); experiment: α4β1 cell adhesion; assay type: cell-based
Metabolic stability (h) = assay type: in vitro ADME, human; conditions: % remaining at 45 min
α2β1 [1] = molecular target: T1, α2β1 (Homo sapiens, UniProt P05556+P17301); experiment: α2β1 cell adhesion; assay type: cell-based
T1 sequence (P17301 30-1181): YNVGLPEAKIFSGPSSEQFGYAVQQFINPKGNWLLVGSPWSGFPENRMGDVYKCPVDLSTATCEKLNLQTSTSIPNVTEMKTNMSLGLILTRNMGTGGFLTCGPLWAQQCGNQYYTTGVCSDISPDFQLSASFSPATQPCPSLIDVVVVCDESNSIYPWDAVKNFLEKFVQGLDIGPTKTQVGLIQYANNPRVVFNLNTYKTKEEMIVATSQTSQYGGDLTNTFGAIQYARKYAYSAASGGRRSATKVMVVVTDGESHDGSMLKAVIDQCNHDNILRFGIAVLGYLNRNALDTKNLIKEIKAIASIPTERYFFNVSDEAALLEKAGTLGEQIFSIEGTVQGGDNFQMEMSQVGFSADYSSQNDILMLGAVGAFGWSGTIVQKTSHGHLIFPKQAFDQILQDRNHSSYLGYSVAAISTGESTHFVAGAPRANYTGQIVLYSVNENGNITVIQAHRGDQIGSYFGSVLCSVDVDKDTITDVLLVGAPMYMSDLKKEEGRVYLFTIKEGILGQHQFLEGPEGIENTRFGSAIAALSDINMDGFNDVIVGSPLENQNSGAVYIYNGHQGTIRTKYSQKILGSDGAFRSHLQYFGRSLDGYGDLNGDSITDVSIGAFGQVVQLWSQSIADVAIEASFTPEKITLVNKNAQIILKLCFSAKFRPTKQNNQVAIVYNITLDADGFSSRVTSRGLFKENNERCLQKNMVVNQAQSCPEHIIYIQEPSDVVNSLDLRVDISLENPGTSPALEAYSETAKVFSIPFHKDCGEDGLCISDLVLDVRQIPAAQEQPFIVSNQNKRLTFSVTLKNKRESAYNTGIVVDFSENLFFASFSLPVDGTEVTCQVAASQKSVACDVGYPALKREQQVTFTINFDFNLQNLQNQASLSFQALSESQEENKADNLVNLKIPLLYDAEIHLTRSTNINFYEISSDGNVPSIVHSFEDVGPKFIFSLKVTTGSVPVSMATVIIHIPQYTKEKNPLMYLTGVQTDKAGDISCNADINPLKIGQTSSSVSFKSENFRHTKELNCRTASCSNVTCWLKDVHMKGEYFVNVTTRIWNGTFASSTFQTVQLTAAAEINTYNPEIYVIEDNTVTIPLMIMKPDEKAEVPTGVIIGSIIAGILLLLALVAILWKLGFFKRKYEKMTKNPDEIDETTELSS
T1 sequence (P05556 21-798): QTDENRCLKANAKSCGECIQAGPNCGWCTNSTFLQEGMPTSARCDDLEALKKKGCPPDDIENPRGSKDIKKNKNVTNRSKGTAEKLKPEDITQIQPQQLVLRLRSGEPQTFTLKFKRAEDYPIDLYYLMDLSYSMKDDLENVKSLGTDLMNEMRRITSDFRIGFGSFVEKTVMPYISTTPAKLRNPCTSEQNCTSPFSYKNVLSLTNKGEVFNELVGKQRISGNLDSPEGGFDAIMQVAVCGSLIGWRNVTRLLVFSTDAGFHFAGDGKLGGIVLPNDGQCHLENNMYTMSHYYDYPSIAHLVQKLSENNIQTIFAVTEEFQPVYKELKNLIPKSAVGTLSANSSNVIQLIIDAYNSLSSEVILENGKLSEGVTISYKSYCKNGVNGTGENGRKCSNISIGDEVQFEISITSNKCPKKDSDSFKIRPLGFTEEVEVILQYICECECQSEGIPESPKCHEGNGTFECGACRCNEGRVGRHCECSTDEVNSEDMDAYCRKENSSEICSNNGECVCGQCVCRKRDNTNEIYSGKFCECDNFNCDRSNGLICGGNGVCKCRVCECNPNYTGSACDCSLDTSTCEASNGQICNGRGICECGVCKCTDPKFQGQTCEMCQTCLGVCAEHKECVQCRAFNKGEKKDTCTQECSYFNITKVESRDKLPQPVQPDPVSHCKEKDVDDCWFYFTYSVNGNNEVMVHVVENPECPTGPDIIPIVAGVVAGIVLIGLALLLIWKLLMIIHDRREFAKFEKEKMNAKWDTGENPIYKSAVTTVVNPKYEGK

Caco-2 permeability = assay type: in vitro ADME; conditions: human; for Papp A→B: A-B direction; for Papp B→A: B-A direction
[2] = Kinetic solubility (aqueous); assay type: physicochemical; conditions: kinetic from dmso stock, read-out: Kinetic Solubility (Aq)
α2β1 [3] = molecular target: T1, α2β1; experiment: α2β1 cell adhesion assay; assay type: cell-based

α4β1, sequence (P13612 34-1032): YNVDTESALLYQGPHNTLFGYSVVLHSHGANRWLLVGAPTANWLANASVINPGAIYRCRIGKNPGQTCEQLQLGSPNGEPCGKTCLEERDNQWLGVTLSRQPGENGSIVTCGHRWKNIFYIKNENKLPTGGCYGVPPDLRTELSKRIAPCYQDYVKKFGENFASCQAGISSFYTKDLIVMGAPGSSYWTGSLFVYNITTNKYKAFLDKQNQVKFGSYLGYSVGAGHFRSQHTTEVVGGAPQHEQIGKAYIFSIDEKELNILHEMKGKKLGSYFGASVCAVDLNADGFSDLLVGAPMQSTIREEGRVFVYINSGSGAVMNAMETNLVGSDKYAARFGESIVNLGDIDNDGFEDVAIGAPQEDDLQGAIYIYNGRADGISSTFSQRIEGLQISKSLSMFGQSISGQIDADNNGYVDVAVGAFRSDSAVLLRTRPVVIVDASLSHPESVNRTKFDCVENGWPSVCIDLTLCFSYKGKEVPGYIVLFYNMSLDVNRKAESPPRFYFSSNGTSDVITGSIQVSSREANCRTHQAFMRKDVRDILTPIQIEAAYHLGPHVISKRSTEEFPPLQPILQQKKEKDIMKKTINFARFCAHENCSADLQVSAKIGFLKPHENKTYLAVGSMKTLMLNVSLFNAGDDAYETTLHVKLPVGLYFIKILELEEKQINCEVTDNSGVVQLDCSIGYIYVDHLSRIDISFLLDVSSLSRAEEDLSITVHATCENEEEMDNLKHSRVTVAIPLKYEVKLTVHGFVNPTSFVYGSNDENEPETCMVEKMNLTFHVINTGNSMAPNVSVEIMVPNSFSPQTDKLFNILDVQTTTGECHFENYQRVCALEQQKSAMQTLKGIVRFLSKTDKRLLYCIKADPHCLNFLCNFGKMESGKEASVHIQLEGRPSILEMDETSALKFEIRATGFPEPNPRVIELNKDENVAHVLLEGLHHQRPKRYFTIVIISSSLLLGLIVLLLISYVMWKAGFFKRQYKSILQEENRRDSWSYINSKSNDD
α4β1, sequence (P05556 21-798): as the sequence (P05556 21-798) above

Row | Compound | Plasma Stab(h) % rem/60 min (Plasma stability (h)) | IC50 (α4β1) | Met Stab(h) % rem/45 min (Metabolic stability (h)) | IC50 (α2β1 [1]) | Papp A→B (Caco-2 permeability) | Papp B→A (Caco-2 permeability) | solubility kinetic [2] | IC50 (α2β1 [3])
1 | O=C(NC[C@H](NC(=O)c1c(Cl)ccc(Nc2ncc3ccccc3n2)c1Cl)C(=O)O)N[C@@H]1CCc2ccccc21 [SU15210-0076-01, (S)-2-(2,6-dichloro-3-(quinazolin-2-ylamino)benzamido)-3-(3-((R)-2,3-dihydro-1H-inden-1-yl)ureido)propanoic Acid] | 55.6% | 2900 nM | 96.3% | < 500 nM | 0.2 ×10⁻⁶ cm/s | 24.2 ×10⁻⁶ cm/s |  | 
2 | O=C(NC[C@H](NC(=O)c1c(Cl)ccc(N2CC(c3ccccc3)C2)c1Cl)C(=O)O)N[C@@H]1CCc2ccccc21 [SU15210-0080-01, (S)-2-(2,6-dichloro-3-(3-phenylazetidin-1-yl)benzamido)-3-(3-((R)-2,3-dihydro-1H-inden-1-yl)ureido)propanoic Acid] |  | 37000 nM |  | < 500 nM |  |  |  | 
3 | O=C(NC[C@H](NC(=O)c1c(Cl)cc(C(=O)NCc2cccc(O)c2)cc1Cl)C(=O)O)N[C@@H]1CCc2ccccc21 [SU15210-0095-01, (S)-2-(2,6-dichloro-4-(3-hydroxybenzylcarbamoyl)benzamido)-3-(3-((R)-2,3-dihydro-1H-inden-1-yl)ureido)propanoic Acid] | 99.4% | 21100 nM | 99.6% | < 500 nM | 3.2 ×10⁻⁶ cm/s | 1.6 ×10⁻⁶ cm/s |  | 
4 | O=C(NC[C@H](NC(=O)c1c(Cl)ccc(NCCCc2ccccc2)c1Cl)C(=O)O)N[C@@H]1CCc2ccccc21 [SU15210-0098-01, (S)-2-(2,6-dichloro-3-(3-phenylpropylamino)benzamido)-3-(3-((R)-2,3-dihydro-1H-inden-1-yl)ureido)propanoic Acid] |  | 32300 nM |  | < 500 nM |  |  |  | 
5 | O=C(Cc1cccc(Cl)c1)Nc1ccc(Cl)c(C(=O)N[C@@H](CNC(=O)N[C@@H]2CCc3ccccc32)C(=O)O)c1Cl [SU15210-0099-01, (S)-2-(2,6-dichloro-3-(2-(3-chlorophenyl)acetamido)benzamido)-3-(3-((R)-2,3-dihydro-1H-inden-1-yl)ureido)propanoic Acid] | 85.84% |  | 72.3% | < 500 nM | 2.7 ×10⁻⁶ cm/s | 20.1 ×10⁻⁶ cm/s | 66.9 µM (≈ 40.4 µg/mL) | 
6 | O=C(CCc1ccccc1)Nc1ccc(Cl)c(C(=O)N[C@@H](CNC(=O)N[C@@H]2CCc3ccccc32)C(=O)O)c1Cl [SU15210-0124-01, (S)-2-(2,6-dichloro-3-(3-phenylpropanamido)benzamido)-3-(3-((R)-2,3-dihydro-1H-inden-1-yl)ureido)propanoic Acid] |  | 21000 nM |  | < 500 nM |  |  |  | 
7 | CN(Cc1ccccc1)C(=O)NC[C@H](NC(=O)c1c(Cl)cccc1Cl)C(=O)O [SU15210-0167-01] |  | 83900 nM |  | < 500 nM |  |  |  | 
8 | O=C(NC[C@H](NC(=O)c1c(Cl)cc2c(c1Cl)CCN(C(=O)c1ccccc1)C2)C(=O)O)N[C@@H]1CCc2ccccc21 [SU15210-0173-01] | 108% |  | 65% | < 500 nM | 0.8 ×10⁻⁶ cm/s | 6.8 ×10⁻⁶ cm/s |  | 
9 | O=C(NC[C@H](NC(=O)c1c(Cl)cc(C(=O)NCc2cccc(Cl)c2)cc1Cl)C(=O)O)N[C@@H]1CCc2ccccc21 [SU15210-0185-01, (S)-2-(2,6-dichloro-4-(3-chlorobenzylcarbamoyl)benzamido)-3-(3-((R)-2,3-dihydro-1H-inden-1-yl)ureido)propanoic Acid] |  |  |  | < 500 nM | 2.2 ×10⁻⁶ cm/s | 5.53 ×10⁻⁶ cm/s |  | 
10 | CN(Cc1ccccc1)C(=O)NC[C@H](NC(=O)c1c(Cl)cc(C(=O)NCc2cccc(O)c2)cc1Cl)C(=O)O [SU15210-0186-01, (S)-3-(3-benzyl-3-methylureido)-2-(2,6-dichloro-4-(3-hydroxybenzylcarbamoyl)benzamido)propanoic Acid] |  |  |  | < 500 nM | 2.2 ×10⁻⁶ cm/s | 1.5 ×10⁻⁶ cm/s |  | 
11 | N#Cc1cccc(CNC(=O)c2cc(Cl)c(C(=O)N[C@@H](CNC(=O)N[C@@H]3CCc4ccccc43)C(=O)O)c(Cl)c2)c1 [SU15210-0292, (S)-2-(2,6-dichloro-4-(3-cyanobenzylcarbamoyl)benzamido)-3-(3-((R)-2,3-dihydro-1H-inden-1-yl)ureido)propanoic Acid] |  |  |  |  |  |  |  | < 500 nM
12 | O=C(NC[C@H](NC(=O)c1c(Cl)cc(C(=O)NCc2cccc(C(F)(F)F)c2)cc1Cl)C(=O)O)N[C@@H]1CCc2ccccc21 [SU15210-0293, (S)-2-(2,6-dichloro-4-(3-(trifluoromethyl)benzylcarbamoyl)benzamido)-3-(3-((R)-2,3-dihydro-1H-inden-1-yl)ureido)propanoic Acid] |  |  |  |  |  |  |  | < 500 nM
13 | O=C(NC[C@H](NC(=O)c1c(Cl)cc(C(=O)NCc2cccc(Cl)c2)cc1Cl)C(=O)O)N[C@@H]1CCc2cc(Cl)ccc21 [SU15210-0294, (S)-3-(3-((R)-5-chloro-2,3-dihydro-1H-inden-1-yl)ureido)-2-(2,6-dichloro-4-(3-chlorobenzylcarbamoyl)benzamido)propanoic Acid] |  |  |  |  |  |  |  | 500 to 1000 nM
